Where “and” joins values, the source holds several entries; their conditions need not be identical. Equal values may be shown once.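 Five concentrations, 48 hours, 96-well plates. At the GI50, growth is halved. TGI marks complete inhibition of growth.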
Experiments:
Assay in all cases: NCI tumour cell line growth inhibition, 48 h
COLO 205 colon = system: COLO 205 colon
HCT-15 colon = system: HCT-15 colon
U251 CNS = system: U251 CNS
SNB-75 CNS = system: SNB-75 CNS
SNB-19 CNS = system: SNB-19 CNS
T-47D breast = system: T-47D breast
MDA-MB-231 breast = system: MDA-MB-231 breast
HL-60(TB) leukemia = system: HL-60(TB) leukemia
M14 melanoma = system: M14 melanoma
OVCAR-4 ovarian = system: OVCAR-4 ovarian

| Compound | GI50 (COLO 205 colon) | TGI (COLO 205 colon) [µM] | GI50 (HCT-15 colon) | TGI (HCT-15 colon) [µM] | GI50 (U251 CNS) | TGI (U251 CNS) [µM] | GI50 (SNB-75 CNS) | TGI (SNB-75 CNS) [µM] | GI50 (SNB-19 CNS) [µM] | TGI (SNB-19 CNS) [µM] | GI50 (T-47D breast) | TGI (T-47D breast) [µM] | GI50 (MDA-MB-231 breast) | TGI (MDA-MB-231 breast) | GI50 (HL-60(TB) leukemia) | TGI (HL-60(TB) leukemia) [µM] | GI50 (M14 melanoma) | TGI (M14 melanoma) [µM] | GI50 (OVCAR-4 ovarian) | TGI (OVCAR-4 ovarian) [µM] |
| --- | --- | --- | --- | --- | --- | --- | --- | --- | --- | --- | --- | --- | --- | --- | --- | --- | --- | --- | --- | --- |
| O=S(=O)(NCCNc1nccc(-c2c(-c3ccc(F)c(O)c3)nc3sccn23)n1)c1ccc(F)cc1 | 5.62 µM | 36.1 | 3.25 µM | 52.6 | 4.75 µM | > 100 | 1.55 µM | 8.81 | 4.26 | > 100 | 5.02 µM | 28 | 2.23 µM | > 100 µM | 2.14 µM | 6.09 | 0.364 µM | 16.5 | 3.9 µM | 14.7 |
| COc1cc2ncn(-c3cc(OCc4ccccc4C(F)(F)F)c(C(=O)N(C)C)s3)c2cc1OC | > 16.8 µM | > 25 | > 25 µM | > 25 | > 25 µM | > 25 | > 18.6 µM | > 25 | > 25 | > 25 | 7.02 µM | > 17 | 10.9 µM | > 25 µM | > 25 µM | > 25 | > 25 µM | > 25 | 18.1 µM | > 25 |
| CC(=O)c1ccc2c(c1)C1C=CCC1[C@H](c1cc3c(cc1Br)OCO3)N2 (stereo not given in full) | 1.94 µM | 5.71 | 1.24 µM | 20.6 | 1.1 µM | 11.9 | 0.5 µM | 7.55 | 1.87 | 33.2 | 1.74 µM | > 47.4 | 1.3 µM | 11.4 µM | 1.3 µM | 5.07 | 0.765 µM | 5.38 | 1.63 µM | > 50.2 |
| O=C(NOC[C@H](O)CO)c1ccc(F)c(F)c1Nc1ccc(I)cc1F | < 0.01 µM and 0.00143 µM | > 100 | 2.73 µM and 0.919 µM | > 100 | 1.05 µM and 0.662 µM | > 100 | 17.8 µM and > 10 µM | > 100 | 20.6 | > 100 | 51.5 µM and > 4.02 µM | > 100 | 0.16 µM and 0.0347 µM | 62.7 µM and > 10 µM | < 0.01 µM and 0.0166 µM | > 100 | < 0.01 µM and 0.00132 µM | 0.0969 | 8.76 µM and > 10 µM | > 100 |
| COc1cc(F)c(F)c(Nc2ccc(I)cc2F)c1NS(=O)(=O)C1(C[C@H](O)CO)CC1 | 0.0234 µM | > 2.51 | 1.67 µM | > 10 | 2.09 µM | > 10 | 2.62 µM | > 10 | 1.83 | > 10 | > 4.02 µM | > 9.3 | 0.217 µM | > 9.46 µM | 0.0219 µM | > 10 | 0.0242 µM | 1.59 | 3.44 µM | > 10 |
| CCOC(=O)C(Cc1c[nH]c2c(N(CCO)CCO)cccc12)(NC(C)=O)C(=O)OCC | 330 µM | > 1000 | 182 µM | > 1000 | 183 µM | 420 | 50.9 µM | 249 | > 1000 | > 1000 | 396 µM | > 1000 | 692 µM | > 1000 µM | 318 µM | > 1000 | > 1000 µM | > 1000 | 196 µM | > 1000 |

Reference: PubChem BioAssay (NCI)
